Test results taken from publication PMC3224213, “Bacterial membrane activity of α-peptide/β-peptoid chimeras: Influence of amino acid composition and chain length on the activity against different bacterial strains” (BMC Microbiology, 2011).

Key:
S. aureus [1] = assay: ATP leakage bioluminescence assay; type: cell-based, Staphylococcus aureus; settings: for intracellular ATP concentration: HEPES buffer pH 7.0, two independent experiments; for dose for the immediate maximum ATP release: 500 μg/mL expressed in μM; for minimum chimera dose for the maximum immediate ATP release: doses 100, 250, 500, 1000 μg/mL, immediate release only, data not shown
Experimental: (§1) Pore formation as caused by peptide addition was determined by measuring ATP leakage from the bacterial cell using a bioluminescence assay. The assay was used to estimate differences between sub-typical chimeras 1, 2 and 3 on S. aureus and S. marcescens and to evaluate the effect of chain length of mixed type chimeras 4a, 4b and 4c on S. aureus. In brief, bacteria were grown in TSB at 37°C for 24 hours and then re-inoculated in TSB at 37°C for 6-8 hours until an absorbance at 546 nm of 2.5 for S. aureus and 2.0 for S. marcescens and then harvested (10 min at 2,000 × g). The bacteria were grown to a high absorbance since a high concentration of bacteria was necessary in order to get a measurable response in the ATP leakage assay. Cells were washed once in 50 mM potassium phosphate buffer (pH 7.0) and once in 50 mM HEPES buffer (pH 7.0), before the pellet was resuspended in HEPES buffer to an OD546 ~ 10, and then stored on ice. Before chimera addition bacteria were pre-incubated with 0.2% (w/v) glucose to energize the cells. In general a chimera dose of 1000 μg/mL (corresponding to 280-552 μM for all chimeras) was used for all assays; however, for determining dose response curves additional doses of 100 (28-55 μM), 250 (71-137 μM) and 500 (140-276 μM) μg/mL were tested, and only the immediate release was noted. Total ATP and extracellular ATP were determined with a luminometer […]. Intracellular volumes of S. aureus and S. marcescens (0.85 μm^3 and 1.7 μm^3, respectively) were subtracted from the total volume before calculating the extracellular ATP concentration; the intracellular ATP concentration could then be calculated from this and the total ATP. ATP leakage kinetics was determined on a bacterial suspension prepared as above. Samples were taken at time 0, 5, 10, 20, 30 and 60 minutes and viable counts determined. Both the ATP leakage assay and killing kinetics performed under the same assay conditions were performed in two independent experiments.

S. marcescens [2] = assay: Killing by chimera with or without EDTA pre-treatment; type: cell-based, Serratia marcescens
Text: (§2) Although there was no systematic difference in the MIC values between Gram-positive and -negative bacteria, we speculated that the Gram-negative outer membrane could act as a barrier to the penetration of AMPs, since polymyxin B resistance in S. marcescens has been linked to induced changes in the amount and composition of lipopolysaccharide (LPS) in the outer membrane. Moreover, similar resistance-conferring membrane alterations have also been seen for other bacteria in response to polymyxin B treatment. Accordingly, we studied how a membrane-destabilizing pre-treatment of S. marcescens, E. coli and S. aureus with the divalent metal cation-chelating agent EDTA would affect the killing caused by chimera 1. In these experiments we used a non-lethal 0.5 mM concentration of EDTA together with the non-lethal 1.5 μM concentration of the tested AMP analogue. […] In contrast, cell numbers of both S. marcescens and E. coli were reduced with 4-5 log from an initial value of log ~5.5 within the first 4 hours (not shown) upon treatment with a sub-lethal EDTA concentration together with the chimera.

S. aureus [3] = assay: as above; type: cell-based, Staphylococcus aureus
Text: as §2

E. coli = assay: as above; type: cell-based, Escherichia coli
Text: as §2

S. marcescens [4] = assay: ATP leakage bioluminescence assay; type: cell-based, Serratia marcescens; settings: 1000 μg/mL chimera
Experimental: as §1

[5] = test system: Serratia marcescens ATCC 8100; assay: Killing kinetics (time-kill); type: cell-based; settings: S. marcescens
Experimental: (§3) In vitro time-kill curves for chimera 1, 2 and 3 were determined against S. aureus 8325 (MIC μM: chimera 1 5.9; chimera 2 2.8; chimera 3 18.7) and Serratia marcescens ATCC 8100 (MIC μM: chimera 1 46.8; chimera 2 45.5; chimera 3 150.0). These two bacterial strains represent organisms susceptible and tolerant to the chimeras, respectively. The bactericidal effect of the three chimeras was tested at MIC in two independent experiments; additionally the effect of chimera 2 was tested at ¼ and 1/2 times MIC. In brief, a suspension prepared from fresh overnight colonies as described above was transferred to 2 mL PBS or cation-adjusted MHB with chimera added (from a 10 × MIC solution) to give a similar bacterial cell density as employed in the MIC determination; the resulting suspension was then incubated at 37°C, 300 rpm. Samples for colony determination were taken at 0, 1, 2, 4, 6 and 8 hours after addition and transferred to a ten-fold dilution row. Colony counts were determined after incubation for 24 hours at 37°C.

S. aureus 8325 = assay: Killing kinetics (time-kill); type: cell-based, Staphylococcus aureus
Experimental: as §3

S. aureus [6] = assay: Time-kill under the conditions of the ATP leakage assay; type: cell-based, Staphylococcus aureus; settings: 1000 μg/mL chimera, same conditions as ATP assay, within the first 20 minutes, initial log ~9.5 per mL
Experimental: as §1

[7] = test system: twelve food-borne and clinical bacterial strains; type: cell-based
Experimental: Initial activity experiments were carried out with twelve strains from seven bacterial species representing common laboratory strains and clinical strains derived from both food-borne and nosocomial infections (Table 1). Stock cultures were stored at -80°C in 4% (w/v) glycerol, 0.5% (w/v) glucose, 2% (w/v) skimmed milk powder and 3% (w/v) tryptone soy powder. All experiments were carried out with bacteria incubated for one night (i.e. approximately 18 hours) at 37°C. Experiments were performed in cation-adjusted Mueller Hinton II broth (MHB) (Becton Dickinson 212322) adjusted to pH 7.4 or Tryptone Soy Broth (TSB) (Oxoid CM0129) for the ATP leakage assays. Brain Heart Infusion (BHI) (CM1135) with agar (VWR 20768.292) 1.5% as gelling agent was used throughout for colony plating.
The Minimum Inhibitory Concentration (MIC) of the chimeras was determined against the spectrum of bacteria using the microdilution method according to guidelines of the Clinical and Laboratory Standards Institute (CLSI). Chimera 1:2 serial dilutions were prepared from 1,024 μg/mL stock solutions to give a final range of 512-0.5 μg/mL in the wells. This corresponds to a final range of 144 to 0.14 μM for the heaviest chimera (i.e. chimera 4c) and of 282 to 0.27 μM for the lightest chimera (i.e. chimera 4a). Colonies grown overnight (i.e. approximately 18 hours) on BHI agar were suspended in 0.9% saline to give a turbidity of 0.13 at OD546 (approximately 1 × 10^8 CFU/mL), and then diluted in MHB pH 7.4 to a final concentration of 5 × 10^5 CFU/mL in each well. Following CLSI guidelines the media for testing of Listeria monocytogenes strains were supplemented with 2.5% lysed horse blood. Polypropylene plates (Nunc 442587) were used to minimize peptide binding and incubation time was 18-20 hours at 37°C. MIC was determined in a minimum of two technical replicates as the lowest concentration of the peptide analogue where no visible growth was found. The Minimum Bactericidal Concentration (MBC) was determined by plating 10 μL of the suspension from the first three wells without growth on BHI agar and incubating these for 24 hours at 37°C. MBC was the lowest concentration at which a 99.9% reduction in CFU/mL was observed. Activity is expressed in μmol/L to enable a direct comparison of analogues with different length (= size).

[8] = 1.5 μM chimera alone, data not shown
[9] = 0.5 mM EDTA and 1.5 μM chimera, within the first 4 hours, initial log ~5.5, not shown
[10] = range over strains, summary of Table 2

Compound	ATP leakage (in words) (S. aureus [1]; 1000 μg/mL chimera)	intracellular ATP concentration (S. aureus [1]; 1000 μg/mL chimera)	ATP leakage (in words) (S. marcescens [4])	reduction in number of viable cells (S. aureus [6])	dose for the immediate maximum ATP release (S. aureus [1])	immediate ATP release (S. aureus [1]; 1000 μg/mL chimera)	minimum chimera dose for the maximum immediate ATP release (S. aureus [1])	also measured
CC(=O)N[C@@H](CCCCNC(=N)N)C(=O)N(CCC(=O)N[C@@H](CCCCNC(=N)N)C(=O)N(CCC(=O)N[C@@H](CCCCNC(=N)N)C(=O)N(CCC(=O)N[C@@H](CCCCNC(=N)N)C(=O)N(CCC(=O)N[C@@H](CCCCNC(=N)N)C(=O)N(CCC(=O)N[C@@H](CCCCNC(=N)N)C(=O)N(CCC(N)=O)Cc1ccccc1)Cc1ccccc1)Cc1ccccc1)Cc1ccccc1)Cc1ccccc1)Cc1ccccc1 [Chimera 1]	caused leakage of ATP	rapidly approached zero	caused leakage of ATP					extracellular ATP concentration (S. aureus [1]; 1000 μg/mL chimera, during the first minutes, HEPES buffer pH 7.0, OD546 ~ 10, two independent experiments): ~ 20 μM; reduction in the number of viable cells, chimera alone (S. marcescens [2]; [8]): 1.5 log; reduction of cell numbers, EDTA together with chimera (S. marcescens [2]; [9]): 4-5 log; reduction in the number of viable cells, chimera alone (S. aureus [3]; [8]): 0.5 log; viable cells, EDTA then chimera versus chimera only (S. aureus [3]; 0.5 mM EDTA and 1.5 μM chimera): No discernable difference; reduction in the number of viable cells, chimera alone (E. coli; [8]): 1.5 log; reduction of cell numbers, EDTA together with chimera (E. coli; [9]): 4-5 log; intracellular ATP concentration (S. marcescens [4]; HEPES buffer pH 7.0, two independent experiments): rapidly approached zero; extracellular ATP concentration (S. marcescens [4]; during the first minutes, HEPES buffer pH 7.0, OD546 ~ 10, two independent experiments): ~ 5 μM
CC(=O)N[C@@H](CCCCNC(=N)N)C(=O)N(CCC(=O)N[C@@H](CCCCNC(=N)N)C(=O)N(CCC(=O)N[C@@H](CCCCNC(=N)N)C(=O)N(CCC(=O)N[C@@H](CCCCNC(=N)N)C(=O)N(CCC(=O)N[C@@H](CCCCNC(=N)N)C(=O)N(CCC(=O)N[C@@H](CCCCNC(=N)N)C(=O)N(CCC(N)=O)[C@@H](C)c1ccccc1)[C@@H](C)c1ccccc1)[C@@H](C)c1ccccc1)[C@@H](C)c1ccccc1)[C@@H](C)c1ccccc1)[C@@H](C)c1ccccc1 [Chimera 2]	caused leakage of ATP		caused leakage of ATP					decrease in the number of viable bacteria ([5]; at MIC in MHB, within the first hour, 37°C, two independent experiments): 2 log; viable cells after treatment in PBS ([5]; at MIC in PBS, 37°C): no viable cells remained after the first hour; effect on cell number at ¼ MIC ([5]; ¼ MIC in MHB): reduction in cell number; number of viable cells at MIC in MHB (S. aureus 8325; at MIC in MHB, 37°C, two independent experiments): did not decrease until after 6 hours; decrease in viable cell numbers (S. aureus 8325; at MIC in PBS, after 4 hours): 2 log
CC(=O)N[C@@H](CCCCN)C(=O)N(CCC(=O)N[C@@H](CCCCNC(=N)N)C(=O)N(CCC(=O)N[C@@H](CCCCN)C(=O)N(CCC(=O)N[C@@H](CCCCNC(=N)N)C(=O)N(CCC(N)=O)[C@@H](C)c1ccccc1)[C@@H](C)c1ccccc1)[C@@H](C)c1ccccc1)[C@@H](C)c1ccccc1 [Chimera 4a]		approx. 5 μM		no killing was observed	276 µM	approximately 15 μM	500 µg/mL	MIC values times higher than those of chimera 4c ([7]; ratio of MIC to that of chimera 4c, over the strains of Table 2): 15-70 times
CC(=O)N[C@@H](CCCCN)C(=O)N(CCC(=O)N[C@@H](CCCCNC(=N)N)C(=O)N(CCC(=O)N[C@@H](CCCCN)C(=O)N(CCC(=O)N[C@@H](CCCCNC(=N)N)C(=O)N(CCC(=O)N[C@@H](CCCCN)C(=O)N(CCC(=O)N[C@@H](CCCCNC(=N)N)C(=O)N(CCC(N)=O)[C@@H](C)c1ccccc1)[C@@H](C)c1ccccc1)[C@@H](C)c1ccccc1)[C@@H](C)c1ccccc1)[C@@H](C)c1ccccc1)[C@@H](C)c1ccccc1 [Chimera 4b]	same leakage pattern as induced by chimera 4a			no killing was observed				
CC(=O)N[C@@H](CCCCN)C(=O)N(CCC(=O)N[C@@H](CCCCNC(=N)N)C(=O)N(CCC(=O)N[C@@H](CCCCN)C(=O)N(CCC(=O)N[C@@H](CCCCNC(=N)N)C(=O)N(CCC(=O)N[C@@H](CCCCN)C(=O)N(CCC(=O)N[C@@H](CCCCNC(=N)N)C(=O)N(CCC(=O)N[C@@H](CCCCN)C(=O)N(CCC(=O)N[C@@H](CCCCNC(=N)N)C(=O)N(CCC(N)=O)[C@@H](C)c1ccccc1)[C@@H](C)c1ccccc1)[C@@H](C)c1ccccc1)[C@@H](C)c1ccccc1)[C@@H](C)c1ccccc1)[C@@H](C)c1ccccc1)[C@@H](C)c1ccccc1)[C@@H](C)c1ccccc1 [Chimera 4c]		immediately depleted of intracellular ATP		2 log	140 µM	approximately 15 μM	500 µg/mL	MIC values against the clinical strains of E. coli, S. aureus and K. pneumoniae [7, 10]: 2.2 to 9.0 µM; MIC values against the food-borne pathogens L. monocytogenes and Vibro spp. [7, 10]: 1.1 to 2.2 µM
